Assay results from ChEMBL document CHEMBL1201862, “PubChem BioAssay data set” (2004).
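Cultured in 96-well plates, cells were exposed to test compound for 48 hours across five concentrations. At the GI50, growth is halved.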 Calls of active or inactive are those of the source. Cut-off read from the data, not from the text of the source: active = GI50 up to about 1.1 µM and inactive = higher.

Legend:
Assay in all cases: NCI-60 cell line screen, 48 h
SF-268 = tested on: SF-268
NCI-H460 = tested on: NCI-H460
SK-MEL-28 = tested on: SK-MEL-28
OVCAR-4 = tested on: OVCAR-4
M14 = tested on: M14
786-0 = tested on: 786-0
TK-10 = tested on: TK-10
Malme-3M = tested on: Malme-3M
UACC-62 = tested on: UACC-62
HOP-92 = tested on: HOP-92
MOLT-4 = tested on: MOLT-4
K562 = tested on: K562
M19-MEL = tested on: M19-MEL
A549 = tested on: A549
SR = tested on: SR
OVCAR-8 = tested on: OVCAR-8
SW-620 = tested on: SW-620
U-251 = tested on: U-251
A498 = tested on: A498
T47D = tested on: T47D

Compound	GI50 (SF-268)	GI50 (NCI-H460)	GI50 (SK-MEL-28)	GI50 (OVCAR-4)	GI50 (M14)	GI50 (786-0)	GI50 (TK-10)	GI50 (Malme-3M)	GI50 (UACC-62)	GI50 (HOP-92)	GI50 (MOLT-4)	GI50 (K562)	GI50 (M19-MEL)	GI50 (A549)	GI50 (SR)	GI50 (OVCAR-8)	GI50 (SW-620)	GI50 (U-251)	GI50 (A498)	GI50 (T47D)
O=c1oc2c3ccc4ccccc4c3n(CCN3CCOCC3)c2c2ccccc12	19.7 µM (inactive)	0.755 µM (active)	> 100 µM (inactive)	> 100 µM (inactive)	58.5 µM (inactive)	6.44 µM (inactive)	> 100 µM (inactive)	> 100 µM (inactive)	3.68 µM (inactive)	> 100 µM (inactive)	1.69 µM (inactive)	3.89 µM (inactive)	3.76 µM (inactive)	5.42 µM (inactive)	1.15 µM (inactive)	> 100 µM (inactive)	5.73 µM (inactive)			
CCCCCCCCCCCCC(Br)C(=O)NCC(N)=O (stereo not given)	3.42 µM (inactive)	16 µM (inactive)	15.2 µM (inactive)	3.55 µM (inactive)	11.1 µM (inactive)	6.85 µM (inactive)	18.1 µM (inactive)	13.2 µM (inactive)	5.86 µM (inactive)	3.7 µM (inactive)			15 µM (inactive)	15.6 µM (inactive)		4.79 µM (inactive)	16 µM (inactive)	11.6 µM (inactive)	13.6 µM (inactive)	
COC12OCCN(CCO)C1=CC(=O)C1(C)N=NC(C)C12 (stereo not given)		> 100 µM (inactive)	> 100 µM (inactive)		> 100 µM (inactive)	> 100 µM (inactive)	> 100 µM (inactive)	> 100 µM (inactive)	> 100 µM (inactive)	> 100 µM (inactive)	> 100 µM (inactive)	> 100 µM (inactive)	> 100 µM (inactive)	> 100 µM (inactive)		> 100 µM (inactive)	> 100 µM (inactive)	> 100 µM (inactive)	> 100 µM (inactive)	
COc1cc([C@@H]2c3cc4c(cc3[C@@H](NC(=O)c3ccc(N)cc3)C3COC(=O)[C@@H]32)OCO4)cc(OC)c1O (stereo not given in full)	2.41 µM (inactive)	< 0.01 µM (active)	5.15 µM (inactive)	93.8 µM (inactive)	2.72 µM (inactive)	1.36 µM (inactive)	9.68 µM (inactive)	2.51 µM (inactive)	1.19 µM (inactive)	4.85 µM (inactive)	0.0375 µM (active)	3.52 µM (inactive)	12.5 µM (inactive)	0.119 µM (active)		2.53 µM (inactive)	1.03 µM (active)	0.362 µM (active)	1.64 µM (inactive)	
C=C(CS(=O)(=O)c1ccccc1)[P+](c1ccccc1)(c1ccccc1)c1ccccc1	2.72 µM (inactive)	22.1 µM (inactive)	11.1 µM (inactive)	37.9 µM (inactive)	17.4 µM (inactive)	19.9 µM (inactive)	31.4 µM (inactive)	12.1 µM (inactive)	22.9 µM (inactive)	24.5 µM (inactive)	16.6 µM (inactive)	4.65 µM (inactive)	17.3 µM (inactive)	34.3 µM (inactive)		14.8 µM (inactive)	18.2 µM (inactive)	> 10 µM (inactive)	35.7 µM (inactive)	
OC/C=C(\I)CCCOCOCc1ccccc1	27.7 µM (inactive)	40.7 µM (inactive)	37.9 µM (inactive)	24.5 µM (inactive)	31.1 µM (inactive)	28.8 µM (inactive)	> 100 µM (inactive)		34.6 µM (inactive)	15.7 µM (inactive)	3.1 µM (inactive)	40 µM (inactive)	32.1 µM (inactive)	32 µM (inactive)		41.4 µM (inactive)	44 µM (inactive)	23.4 µM (inactive)	60.8 µM (inactive)	
COC1OC(COCc2ccc(Cl)cc2)C(OCc2ccc(Cl)cc2)C1O (stereo not given)	17.1 µM (inactive)	17.4 µM (inactive)	16.9 µM (inactive)	20.6 µM (inactive)	16.1 µM (inactive)	15 µM (inactive)	25.5 µM (inactive)	15.8 µM (inactive)	16.2 µM (inactive)	11.2 µM (inactive)	20.2 µM (inactive)	16.2 µM (inactive)	19.2 µM (inactive)	17.3 µM (inactive)		26.2 µM (inactive)	15.4 µM (inactive)	15.6 µM (inactive)		
Clc1ccccc1C1SCc2nc3ccccc3n21 (stereo not given)	37.1 µM (inactive)	30.1 µM (inactive)	28.5 µM (inactive)	18 µM (inactive)	19.1 µM (inactive)	25.7 µM (inactive)	23 µM (inactive)	17.7 µM (inactive)	> 10 µM (inactive)	8.79 µM (inactive)	23.6 µM (inactive)	21.6 µM (inactive)	33 µM (inactive)	32.6 µM (inactive)	19.4 µM (inactive)	24.2 µM (inactive)	43.5 µM (inactive)	22.8 µM (inactive)		
CC(C)=CC(=O)C1c2cccc(O)c2C(=O)c2c(O)cc(C)cc21 (stereo not given)	2.12 µM (inactive)	2.32 µM (inactive)	3.05 µM (inactive)	2.13 µM (inactive)	3.25 µM (inactive)	5.06 µM (inactive)	2.42 µM (inactive)	2.76 µM (inactive)		2.75 µM (inactive)	4.23 µM (inactive)	2.65 µM (inactive)	1.81 µM (inactive)	1.92 µM (inactive)		2.81 µM (inactive)	3.33 µM (inactive)	1.73 µM (inactive)	10.7 µM (inactive)	
CCCCCCC(C)OC(=O)/C=C(\CC(=O)OC(C)CCCCCC)C(=O)OC(C)CCCCCC (stereo not given)	> 100 µM (inactive)	> 100 µM (inactive)	> 100 µM (inactive)	> 100 µM (inactive)	> 100 µM (inactive)	> 100 µM (inactive)	> 100 µM (inactive)	> 100 µM (inactive)	> 100 µM (inactive)	> 100 µM (inactive)	> 100 µM (inactive)		> 100 µM (inactive)	> 100 µM (inactive)		> 100 µM (inactive)	> 100 µM (inactive)	> 100 µM (inactive)	> 100 µM (inactive)	
O=c1c2c3c(sc2nc2n1N=C(c1ccc(Br)cc1)CS2)CCCC3	> 100 µM (inactive)	> 100 µM (inactive)	> 100 µM (inactive)	> 100 µM (inactive)	> 100 µM (inactive)	> 100 µM (inactive)	> 100 µM (inactive)	> 100 µM (inactive)	> 100 µM (inactive)	> 100 µM (inactive)	> 100 µM (inactive)	> 100 µM (inactive)		> 100 µM (inactive)	> 100 µM (inactive)	> 100 µM (inactive)	> 100 µM (inactive)	> 100 µM (inactive)	> 100 µM (inactive)	> 100 µM (inactive)
O=C(CC(=O)C(F)(F)F)c1csc2ccccc12	30.8 µM (inactive)	19.1 µM (inactive)	14.1 µM (inactive)		23.6 µM (inactive)	36.7 µM (inactive)	4.28 µM (inactive)	26.4 µM (inactive)	32.2 µM (inactive)		17.8 µM (inactive)	24.8 µM (inactive)	32.8 µM (inactive)	62.2 µM (inactive)	17.5 µM (inactive)	18.5 µM (inactive)	38.5 µM (inactive)	34.7 µM (inactive)		
CN1CCOC1(C)c1ccccc1 (stereo not given)	> 100 µM (inactive)	> 100 µM (inactive)	> 100 µM (inactive)	> 100 µM (inactive)	> 100 µM (inactive)	> 100 µM (inactive)	> 100 µM (inactive)	> 100 µM (inactive)	> 100 µM (inactive)	> 100 µM (inactive)	> 100 µM (inactive)	> 100 µM (inactive)		> 100 µM (inactive)	> 100 µM (inactive)	> 100 µM (inactive)	> 100 µM (inactive)	> 100 µM (inactive)	> 100 µM (inactive)	> 100 µM (inactive)
CC(NNC(=O)c1ccncc1)c1ccc(Cl)cc1Cl (stereo not given)	> 100 µM (inactive)	51.2 µM (inactive)	> 100 µM (inactive)	> 100 µM (inactive)	> 100 µM (inactive)	> 100 µM (inactive)	> 100 µM (inactive)	> 100 µM (inactive)	> 100 µM (inactive)	70.6 µM (inactive)	83.8 µM (inactive)	> 100 µM (inactive)		> 100 µM (inactive)	55.3 µM (inactive)	> 100 µM (inactive)	> 100 µM (inactive)	> 100 µM (inactive)	> 100 µM (inactive)	51.9 µM (inactive)
C=C(COC(C)=O)CC(/C=C(\C)CCC=C(C)C)OC(C)=O (stereo not given)	> 100 µM (inactive)	> 100 µM (inactive)	> 100 µM (inactive)	> 100 µM (inactive)	> 100 µM (inactive)	> 100 µM (inactive)	> 100 µM (inactive)		> 100 µM (inactive)	46.5 µM (inactive)	48.4 µM (inactive)	> 100 µM (inactive)	> 100 µM (inactive)	> 100 µM (inactive)		> 100 µM (inactive)	> 100 µM (inactive)	> 100 µM (inactive)	> 100 µM (inactive)	
CCOc1c2ccsc2c(OCC)c2ccsc12	9.82 µM (inactive)	3.58 µM (inactive)	9.38 µM (inactive)	> 100 µM (inactive)	4.69 µM (inactive)	4.44 µM (inactive)	> 100 µM (inactive)	3.73 µM (inactive)	3.85 µM (inactive)	2.57 µM (inactive)	3.52 µM (inactive)	2.95 µM (inactive)		7.21 µM (inactive)	4.32 µM (inactive)	6.24 µM (inactive)	3.72 µM (inactive)	3.72 µM (inactive)	7.03 µM (inactive)	3.94 µM (inactive)
